The values that follow come from US20220348563A1, “KDM INHIBITORS AND USES THEREOF” (DANA-FARBER CANCER INSTITUTE, INC., priority 2019, published 2022).

The target of the assay is T1, KDM3A (Homo sapiens, UniProt Q9Y4C1).
T1 sequence (Q9Y4C1 1-1321): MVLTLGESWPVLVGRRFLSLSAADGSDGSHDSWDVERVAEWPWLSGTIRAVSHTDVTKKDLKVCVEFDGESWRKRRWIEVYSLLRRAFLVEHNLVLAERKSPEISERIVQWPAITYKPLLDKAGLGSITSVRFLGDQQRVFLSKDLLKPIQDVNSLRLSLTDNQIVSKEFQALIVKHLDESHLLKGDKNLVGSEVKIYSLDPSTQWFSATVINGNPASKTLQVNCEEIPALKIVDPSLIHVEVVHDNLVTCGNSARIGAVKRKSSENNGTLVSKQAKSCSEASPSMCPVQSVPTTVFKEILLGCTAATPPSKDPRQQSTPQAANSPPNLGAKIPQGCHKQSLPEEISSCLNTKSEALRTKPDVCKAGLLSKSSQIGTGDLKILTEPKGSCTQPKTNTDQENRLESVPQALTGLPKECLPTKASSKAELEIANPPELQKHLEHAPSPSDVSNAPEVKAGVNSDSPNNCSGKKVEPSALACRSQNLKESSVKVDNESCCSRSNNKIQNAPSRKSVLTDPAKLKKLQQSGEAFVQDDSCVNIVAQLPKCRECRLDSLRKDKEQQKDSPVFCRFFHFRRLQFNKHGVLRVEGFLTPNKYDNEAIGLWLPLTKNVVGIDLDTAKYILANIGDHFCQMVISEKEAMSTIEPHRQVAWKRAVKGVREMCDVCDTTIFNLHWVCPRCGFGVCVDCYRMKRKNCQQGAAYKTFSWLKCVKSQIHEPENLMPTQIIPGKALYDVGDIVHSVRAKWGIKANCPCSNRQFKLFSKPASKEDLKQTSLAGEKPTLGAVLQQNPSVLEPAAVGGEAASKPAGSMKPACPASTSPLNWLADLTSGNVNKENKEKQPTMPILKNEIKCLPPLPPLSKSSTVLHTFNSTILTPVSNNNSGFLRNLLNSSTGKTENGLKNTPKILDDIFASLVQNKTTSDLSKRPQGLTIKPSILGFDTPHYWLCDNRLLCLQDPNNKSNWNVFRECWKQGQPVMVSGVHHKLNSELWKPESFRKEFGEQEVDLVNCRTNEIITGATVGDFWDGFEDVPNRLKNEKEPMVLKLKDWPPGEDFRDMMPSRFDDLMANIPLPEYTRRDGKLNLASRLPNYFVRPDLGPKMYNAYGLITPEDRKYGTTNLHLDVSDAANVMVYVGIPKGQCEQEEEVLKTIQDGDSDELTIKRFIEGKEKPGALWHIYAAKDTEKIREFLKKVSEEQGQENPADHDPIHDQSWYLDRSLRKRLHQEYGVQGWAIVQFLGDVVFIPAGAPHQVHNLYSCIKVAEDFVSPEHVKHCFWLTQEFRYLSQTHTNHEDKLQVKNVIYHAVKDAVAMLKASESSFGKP
Description: KDM3 AlphaScreen assay (Table 2, ASSAY 9). Conditions: for IC50: ASSAY 9. The format is biochemical. The protocol:
AlphaScreen assays were performed in 384-well plate format using white AlphaPlate™ (PerkinElmer®, USA), and transfer of pre-diluted compound (100 nL) was performed using a Janus® Workstation (PerkinElmer®, USA). All subsequent steps were carried out in assay buffer (50 mM 4-(2-hydroxyethyl)-1-piperazineethanesulfonic acid (HEPES), pH 7.5, 0.1% (wt/vol) bovine serum albumin (BSA) and 0.01% (vol/vol) Tween®20). In brief, 10 μL of assay buffer containing demethylase enzyme (2 nM Final) was pre-incubated for 15 min with dilutions of compound. The enzyme reaction was initiated by the addition of substrate (5 μL) consisting of L-ascorbic acid (100 μM Final), […] (OG) (5 μM Final), FAS (10 μM Final) and histone H3(1-21)K9Me3-GGK Biotin (100 nM Final). The enzyme reaction was allowed to proceed for 30 minutes and was stopped by the addition of 5 μL of assay buffer containing ethylenediaminetetraacetic acid (EDTA) (40 mM) and NaCl (1,200 mM). The final concentration of DMSO was 1%. Streptavidin donor beads (0.08 mg/ml) and protein-A-conjugated acceptor beads (0.08 mg/ml) were preincubated for 1 h with antibody to methyl mark (300 ng/mL Final), and the presence of histone H3 product methyl mark was detected using the preincubated AlphaScreen™ beads (5 μL). Detection was allowed to proceed for 2 h at room temperature, and the assay plates were read on the EnVision® 2104 plate reader. Data were normalized to the (no-enzyme) control, and the IC50 values were determined via nonlinear regression curve fit using GraphPad Prism 7.
(In general: Bead proximity is the source of the signal in Alpha formats.)

Usually IC50 stands for the concentration needed to halve the response being measured. A low value points to higher potency.

SMILES strings stand for the structures.

As to `CN(C)c1ccc(CNc2ccc(F)cc2C(=O)N2CCN(Cc3ccc(N(C)C)cc3)CC2)cc1` [Compound 5, (2-((4-(dimethylamino)benzyl)amino)-5-fluorophenyl)(4-(4-(dimethylamino)benzyl)piperazin-1-yl)methanone], the “KDM3A inhibition, verdict in words on Table 2” value is “potent KDM3A inhibitors” and the IC50 was 7.65 µM.

Compound `COc1ccc(S(=O)(=O)Nc2ccc(F)cc2C(=O)N2CCC(Oc3ccc(-c4ccc(N(C)C)cc4)cn3)CC2)cc1OC` [KDM3-60] yielded a half-inhibitory concentration (IC50) of 35 µM.

Compound `CN(C)c1ccc(-c2ccc(OC3CCN(C(=O)c4ccccc4OC(=O)c4ccccc4O)CC3)nc2)cc1` [JADA196, 2-(4-((5-(4-(dimethylamino)phenyl)pyridin-2-yl)oxy)piperidine-1-carbonyl)phenyl 2-hydroxybenzoate] displayed an IC50 of 16 µM.

`CN(C)c1ccc(CCC(=O)Nc2ccc(C(F)(F)F)cc2C(=O)N2CCC(Oc3ccc(-c4ccc(N(C)C)cc4)cn3)CC2)cc1` [KDM3-53, 3-(4-(dimethylamino)phenyl)-N-(2-(4-((5-(4-(dimethylamino)phenyl)pyridin-2-yl)oxy)piperidine-1-carbonyl)-4-(trifluoromethyl)phenyl)propanamide]: inhibition was half-maximal at 20 µM (IC50).

`CN(C)c1ccc(CCC(=O)Nc2cc(F)ccc2C(=O)N2CCC(Oc3ccc(-c4ccc(N(C)C)cc4)cn3)CC2)cc1` [KDM3-51, 3-(4-(dimethylamino)phenyl)-N-(2-(4-((5-(4-(dimethylamino)phenyl)pyridin-2-yl)oxy)piperidine-1-carbonyl)-5-fluorophenyl)propanamide] had an IC50 of 14 µM.

`CN(C)c1ccc(CNC(=O)/C=C\C(=O)N2CCC(Oc3ccc(-c4ccc(N(C)C)cc4)cn3)CC2)cc1` [KDM3-47, (Z)-N-(4-(dimethylamino)benzyl)-4-(4-((5-(4-(dimethylamino)phenyl)pyridin-2-yl)oxy)piperidin-1-yl)-4-oxobut-2-enamide]: inhibition was half-maximal at 13 µM (IC50).

As to `CN(C)c1ccc(-c2ccc(OC3CCN(C(=O)c4cn(S(=O)(=O)c5ccccc5)c5ccccc45)CC3)nc2)cc1` [Compound 11], the “KDM3A inhibition, verdict in words on Table 2” value is on record as “potent KDM3A inhibitors” and inhibition was half-maximal at 33.6 µM (IC50).

`CN(C)c1ccc(CCC(=O)Nc2ccc(OC(F)(F)F)cc2C(=O)N2CCC(Oc3ccc(-c4ccc(N(C)C)cc4)cn3)CC2)cc1` [KDM3-59, 3-(4-(dimethylamino)phenyl)-N-(2-(4-((5-(4-(dimethylamino)phenyl)pyridin-2-yl)oxy)piperidine-1-carbonyl)-4-(trifluoromethoxy)phenyl)propanamide]: the IC50 worked out at 23.6 µM.
